Test results taken from ChEMBL document CHEMBL5029177, “Synthetic enamine naphthoquinone derived from lawsone as cytotoxic agents assessed by in vitro and in silico evaluations” (Bioorg Med Chem Lett, 2021).
Calls of active or inactive are those of the source. The calls are words filed in the database; no cut-off is given here.

How the values were obtained:
[1] = test system: HCT-116; assay: Antiproliferative activity against human HCT-116 cells assessed as reduction in cell viability by MTT assay; format: functional, cell-based
[2] = test system: PC-3; assay: Antiproliferative activity against human PC-3 cells assessed as reduction in cell viability by MTT assay; format: functional, cell-based
[3] = test system: HL-60; assay: Antiproliferative activity against human HL-60 cells assessed as reduction in cell viability by MTT assay; format: functional, cell-based
[4] = test system: SNB-19; assay: Antiproliferative activity against human SNB-19 cells assessed as reduction in cell viability by MTT assay; format: functional, cell-based
[5] = test system: HCT-116; assay: Induction of cell cycle arrest in human HCT-116 cells assessed as accumulation at S phase at 20 uM after 24 hrs by PI-staining based flow cytometric analysis (reference value: 39.7%); format: functional
[6] = test system: HCT-116; assay: Induction of cell cycle arrest in human HCT-116 cells after 24 hrs by PI-staining based flow cytometric analysis; format: functional

Row | SMILES | IC50 [1] [µM] | IC50 [2] [µM] | IC50 [3] [µM] | IC50 [4] [µM] | Activity [5] [%] | Activity [6]
1 | CS(=O)(=O)OCCNC1=CC(=O)c2ccccc2C1=O | 16.3 | 62.8 | 27.5 | 31.2 | – | –
2 | COc1cccc2c1C(=O)c1c(O)c3c(c(O)c1C2=O)C[C@@](O)(C(=O)CO)C[C@@H]3O[C@H]1C[C@H](N)[C@H](O)[C@H](C)O1 [DOXORUBICIN] | – | – | 2.05 | 0.76 | – | –
3 | O=c1[nH]cc(F)c(=O)[nH]1 [FLUOROURACIL] | 19.3 | 32.9 | – | – | 66.6 | –
4 | O=C1C=C(N2CCCC2)C(=O)c2ccccc21 | 159 | > 200 | 111 | > 200 | – | –
5 | Cc1ccc(S(=O)(=O)OCCNC2=CC(=O)c3ccccc3C2=O)cc1 | 81.8 | 59.2 | > 200 | 21.1 | – | –
6 | O=C1C=C(NCc2ccccn2)C(=O)c2ccccc21 | 13.5 | 16.5 | 4.59 | 23.1 | 47.57 | –
7 | O=C1C=C(NCCCNc2nc(N3CCOCC3)nc(N3CCOCC3)n2)C(=O)c2ccccc21 | 57.5 | 41.8 | 53.4 | 126 | – | –
8 | O=C1C=C(NCc2ccccc2)C(=O)c2ccccc21 | 130 | 70.6 | 86.5 | 80 | – | –
9 | O=C1C=C(NCCO)C(=O)c2ccccc21 | 70.3 | 107 | 49.8 | 108 | – | –
10 | CNC1=CC(=O)c2ccccc2C1=O | 55.7 | 93.3 | 41.4 | 114 | – | –
11 | NCCCNC1=CC(=O)c2ccccc2C1=O | 59.6 | 63.2 | 30 | 71.3 | – | –
12 | O=C1C=C(NCCCNc2ccnc3cc(Cl)ccc23)C(=O)c2ccccc21 | 11.5 | 8.39 | 4.78 | 16.9 | – | inactive
